Test [1] has as its system WT or mutant P2X receptors. The test is described as follows: Holding current in the absence of ATP. The format is cell-based, human.
The target of test [2] is T1, P2X2 receptor mutant D136K (Homo sapiens, UniProt Q9UBL9, D148K).
T1 sequence (Q9UBL9 1-471 D148K): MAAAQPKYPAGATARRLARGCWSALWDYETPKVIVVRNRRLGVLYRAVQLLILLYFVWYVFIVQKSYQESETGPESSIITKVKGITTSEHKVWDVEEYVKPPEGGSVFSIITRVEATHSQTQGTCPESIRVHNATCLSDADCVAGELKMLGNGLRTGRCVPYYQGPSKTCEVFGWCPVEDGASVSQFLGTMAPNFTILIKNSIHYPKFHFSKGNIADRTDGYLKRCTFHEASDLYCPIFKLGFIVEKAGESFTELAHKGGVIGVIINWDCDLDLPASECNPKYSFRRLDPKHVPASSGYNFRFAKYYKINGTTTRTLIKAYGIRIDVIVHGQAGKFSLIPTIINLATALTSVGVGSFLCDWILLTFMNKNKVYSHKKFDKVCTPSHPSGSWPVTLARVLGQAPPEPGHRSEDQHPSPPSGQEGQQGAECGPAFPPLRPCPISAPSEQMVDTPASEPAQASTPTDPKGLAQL
The test is described as follows: Two-electrode voltage clamp, P2X2 mutant D136K. The format is cell-based. A general note: In two-electrode clamp one electrode senses voltage and the other passes current.

The target in the next test is T2, human P2X2 receptor WT (Homo sapiens, UniProt Q9UBL9).
T2 sequence (Q9UBL9 1-471): T1 sequence (Q9UBL9 1-471 D148K) with K148D
The test is described as follows: Two-electrode voltage clamp, WT P2X2 receptor in Xenopus oocytes. The format is cell-based.

The target of test [3] is T3, P2X1 receptor mutant KAKRK → EADML(4) (Homo sapiens, UniProt P51575, K136E/K138D/K140L/R139M).
T3 sequence (P51575 1-399 K136E/K138D/R139M/K140L): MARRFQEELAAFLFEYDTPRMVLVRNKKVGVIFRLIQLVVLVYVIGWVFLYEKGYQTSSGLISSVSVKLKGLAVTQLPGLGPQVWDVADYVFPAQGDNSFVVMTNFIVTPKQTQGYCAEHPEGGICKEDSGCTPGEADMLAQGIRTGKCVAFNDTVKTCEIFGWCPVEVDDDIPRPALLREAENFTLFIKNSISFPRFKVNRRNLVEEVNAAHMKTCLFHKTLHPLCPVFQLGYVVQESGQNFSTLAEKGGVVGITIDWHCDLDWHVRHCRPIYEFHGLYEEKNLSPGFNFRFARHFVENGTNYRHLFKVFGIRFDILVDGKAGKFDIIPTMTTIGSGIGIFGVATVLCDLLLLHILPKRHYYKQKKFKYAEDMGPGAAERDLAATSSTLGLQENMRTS
The test is described as follows: Two-electrode voltage clamp, P2X1 mutant X1-EADML. The format is cell-based.

Test [4] deals with T4, P2X1 receptor mutant KAKRK → EADRK(2) (Homo sapiens, UniProt P51575, K136E/K138D).
T4 sequence (P51575 1-399 K136E/K138D): T3 sequence (P51575 1-399 K136E/K138D/R139M/K140L) with M139R, L140K
The test is described as follows: Two-electrode voltage clamp, P2X1 mutant X1-EADRK. The format is cell-based.

The next test concerns the target T5, P2X1 Cys2(1-6) chimera (Homo sapiens, UniProt P51575, A118P/A137L/A141G/A151Y/D154G/DEL120-123/E128S/F152Y/G124S/G131D/I144L/I161V/INS125RVHNAT/INS150P/K127L/K136E/K138D/K140L/K148R/N153Q/P134A/Q142N/R139M/S130A/T133V/T155P/V156S).
T5 sequence (P51575 with tags, fused parts or gaps A118P/DEL120-123/G124S/INS125RVHNAT/K127L/E128S/S130A/G131D/T133V/P134A/K136E/A137L/K138D/R139M/K140L/A141G/Q142N/I144L/K148R/INS150P/A151Y/F152Y/N153Q/D154G/T155P/V156S/I161V): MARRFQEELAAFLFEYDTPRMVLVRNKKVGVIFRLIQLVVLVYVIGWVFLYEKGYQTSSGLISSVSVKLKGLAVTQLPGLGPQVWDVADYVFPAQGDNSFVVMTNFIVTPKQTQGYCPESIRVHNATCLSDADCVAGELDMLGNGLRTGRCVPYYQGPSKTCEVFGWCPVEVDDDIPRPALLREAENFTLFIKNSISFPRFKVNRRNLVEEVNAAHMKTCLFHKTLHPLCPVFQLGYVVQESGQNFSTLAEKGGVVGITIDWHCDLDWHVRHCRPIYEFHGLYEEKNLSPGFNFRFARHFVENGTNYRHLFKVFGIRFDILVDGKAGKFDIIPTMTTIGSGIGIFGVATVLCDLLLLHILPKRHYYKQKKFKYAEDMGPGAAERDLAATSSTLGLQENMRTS
The test is described as follows: Two-electrode voltage clamp, chimera P2X1 Cys2. As to conditions: P2X1 Cys2(1–6). The format is cell-based.

Molecules are shown by their SMILES. Where a chain is given by its changes, count along the chain named. Values joined by “and” are separate entries in the source; they are usually repeats but may differ in a detail not shown here. Equal values may be shown once.

Consider `O=C(Nc1cc(C(=O)Nc2ccc(S(=O)(=O)O)cc2S(=O)(=O)O)cc(C(=O)Nc2ccc(S(=O)(=O)O)cc2S(=O)(=O)O)c1)Nc1cc(C(=O)Nc2ccc(S(=O)(=O)O)cc2S(=O)(=O)O)cc(C(=O)Nc2ccc(S(=O)(=O)O)cc2S(=O)(=O)O)c1` [NF449, 4,4′,4′′,4′′′-(carbonylbis(imino-5,1,3-benzenetriyl-bis(carbonylimino)))tetrakis-benzene-1,3-disulphonic acid], for which the “Effect on holding current” value in test [1] (NF449 10 µM) was “no effect”. Further, the “Effect of mutation on NF449 sensitivity” value in test [2] is “no effect”. Besides, the “NF449 pIC50” value on human P2X2 receptor WT (P2X2 WT, vs EC90 concentration of ATP) came out at 5.86 ± 0.09. For the same molecule, the “Hill slope of NF449 inhibition curve” value amounted to 1.61 ± 0.08 on human P2X2 receptor WT (WT P2X2, vs EC90 ATP) and 1.38 ± 0.07 at P2X1 Cys2(1-6) chimera (vs EC90 ATP). The half-maximal inhibitory concentration (IC50) (usually the point on the concentration scale where inhibition reaches its midpoint) on human P2X2 receptor WT (read-out: NF449 IC50, P2X2 receptor, vs EC90 ATP (30 µM)) is ~1000 nM and ~1500 nM. Further, in test [3], the “Reduction in NF449 sensitivity compared with WT P2X1” value was approximately 600 fold. For the same molecule, in test [4], the “Extra decrease in NF449 sensitivity compared with the K138D mutant” value is reported as approximately 15 fold. Besides, the “Reduction in NF449 sensitivity compared with P2X1 WT” value on P2X1 Cys2(1-6) chimera is listed as approximately 300 fold.

With `Cc1ccc(C(=O)Nc2ccc(S(=O)(=O)O)c3cc(S(=O)(=O)O)cc(S(=O)(=O)O)c23)cc1NC(=O)c1cccc(NC(=O)Nc2cccc(C(=O)Nc3cc(C(=O)Nc4ccc(S(=O)(=O)O)c5cc(S(=O)(=O)O)cc(S(=O)(=O)O)c45)ccc3C)c2)c1` [suramin], the “Effect on holding current” value in test [1] (suramin 100 µM) is given as “no effect”. For the same molecule, the “Effect of mutation on suramin sensitivity” value in test [2] is on record as “no effect”. At human P2X2 receptor WT (P2X2, 100 µM suramin, ATP 30 µM (EC90)), the “Reduction of responses to ATP” value was approximately 50%.
